Source: PubChem BioAssay (NCI)
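Compound exposure: 48 hours, 5 concentrations, 96-well plates. GI50 marks 50% less growth. TGI: total growth inhibition.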

Columns and labels:
Assay in all cases: NCI-60 cell line screen, 48 h
[1] = tested on: ACHN renal
[2] = tested on: HT29 colon
[3] = tested on: K-562 leukemia
[4] = tested on: KM12 colon
[5] = tested on: NCI-H23 lung
[6] = tested on: NCI-H460 lung
[7] = tested on: SW-620 colon
[8] = tested on: TK-10 renal
[9] = tested on: NCI-H226 lung

Compound: NCP(=O)(O)OCC(=O)O
- TGI [1]: > 100 µM
- TGI [2]: > 100 µM
- TGI [3]: > 100 µM
- TGI [4]: > 100 µM
- TGI [5]: > 100 µM
- TGI [6]: > 100 µM
- TGI [7]: > 100 µM
- TGI [8]: > 100 µM

Compound: O=C1c2ccn(CCCCN3CCC(O)CC3)c2C(=O)c2c1c(O)c1ccccc1c2O
- GI50 [1]: 15.2 µM
- TGI [1]: 32.8 µM
- GI50 [2]: 46.9 µM
- TGI [2]: > 100 µM
- GI50 [3]: 1.77 µM
- TGI [3]: > 100 µM
- GI50 [4]: 1.96 µM
- TGI [4]: 5.2 µM
- GI50 [9]: 23.7 µM
- TGI [9]: 60.2 µM
- GI50 [5]: 1.97 µM
- TGI [5]: 3.84 µM
- GI50 [7]: 4.48 µM
- TGI [7]: > 100 µM
- GI50 [8]: 1.65 µM
- TGI [8]: 3.36 µM

Compound: Cn1ccnc1C[N-]Cc1nccn1C.O=[N+]([O-])[O-].O=[N+]([O-])[O-].[Cu+2]
- GI50 [2]: > 100 µM
- TGI [2]: > 100 µM
- GI50 [3]: > 100 µM
- TGI [3]: > 100 µM
- GI50 [4]: > 100 µM
- TGI [4]: > 100 µM
- GI50 [9]: > 100 µM
- TGI [9]: > 100 µM
- GI50 [5]: > 100 µM
- TGI [5]: > 100 µM
- GI50 [6]: 62.8 µM
- TGI [6]: > 100 µM
- GI50 [7]: > 100 µM
- TGI [7]: > 100 µM
- GI50 [8]: > 100 µM
- TGI [8]: > 100 µM

Compound: CC(=O)CC(=O)/C=C/c1cccs1
- TGI [1]: > 100 µM
- TGI [2]: > 100 µM
- TGI [3]: > 100 µM
- TGI [4]: > 100 µM
- TGI [9]: > 100 µM
- TGI [5]: > 100 µM
- TGI [6]: > 100 µM
- TGI [7]: > 100 µM
- TGI [8]: > 100 µM

Compound: COC(=O)C1CC(C(=O)OC)c2nc3cc(C)c(C)cc3nc21 (stereo not given)
- TGI [1]: > 100 µM
- TGI [2]: > 100 µM
- TGI [3]: > 100 µM
- TGI [4]: > 100 µM
- TGI [9]: > 100 µM
- TGI [5]: > 100 µM
- TGI [6]: > 100 µM
- TGI [7]: > 100 µM
- TGI [8]: > 100 µM

Compound: CN(C)CCNc1nc(-c2cccs2)cc(-c2cccs2)n1
- TGI [2]: 22.2 µM
- TGI [3]: 36.5 µM
- TGI [4]: 28.5 µM
- TGI [9]: 30.5 µM
- TGI [5]: 25.7 µM
- TGI [6]: 18.3 µM
- TGI [7]: 29.1 µM
- TGI [8]: 29 µM

Compound: COc1ccc2nc3cccc(C(=O)NCCN(C)C)c3nc2c1
- TGI [1]: 6.78 µM
- TGI [2]: 6.63 µM
- TGI [3]: 6.94 µM
- TGI [4]: 9.82 µM
- TGI [9]: 3.85 µM
- TGI [5]: 3.41 µM
- TGI [8]: 8.6 µM

Compound: C1C[OH+]CC[OH+]CC[OH+]CC[OH+]CC[OH+]CC[OH+]1.[Cl-].[Nb+5]
- GI50 [1]: > 100 µM
- TGI [1]: > 100 µM
- GI50 [2]: > 100 µM
- TGI [2]: > 100 µM
- GI50 [3]: > 100 µM
- TGI [3]: > 100 µM
- GI50 [4]: > 100 µM
- TGI [4]: > 100 µM
- GI50 [9]: > 100 µM
- TGI [9]: > 100 µM
- GI50 [5]: > 100 µM
- TGI [5]: > 100 µM
- GI50 [6]: > 100 µM
- TGI [6]: > 100 µM
- GI50 [7]: > 100 µM
- TGI [7]: > 100 µM
- GI50 [8]: > 100 µM
- TGI [8]: > 100 µM

Compound: CO[C@H](C(=O)O)[C@@H]1Cc2cc3cc(OC4CC(OC5CC(O)C(O)C(C)O5)C(O)C(C)O4)c(C)c(O)c3c(O)c2C(=O)[C@H]1OC1CC(OC2CC(OC3CC(C)(O)C(O)C(C)O3)C(O)C(C)O2)C(O)C(C)O1 (stereo not given in full)
- GI50 [2]: 0.305 µM
- TGI [2]: > 32.5 µM
- GI50 [3]: 0.303 µM
- TGI [3]: > 32.5 µM
- GI50 [4]: 0.233 µM
- TGI [4]: 2.59 µM
- GI50 [9]: 0.126 µM
- TGI [9]: 0.892 µM
- GI50 [5]: 0.211 µM
- TGI [5]: 2.67 µM
- GI50 [6]: 0.131 µM
- TGI [6]: > 32.5 µM
- GI50 [7]: 0.245 µM
- TGI [7]: > 32.5 µM
- GI50 [8]: 1.45 µM
- TGI [8]: > 32.5 µM

Compound: Cc1ccc(NC(=O)CCC(=O)C(C#N)c2ccccc2)cc1C (stereo not given)
- TGI [1]: > 100 µM
- TGI [2]: > 100 µM
- TGI [3]: > 100 µM
- TGI [4]: > 100 µM
- TGI [9]: > 100 µM
- TGI [5]: > 100 µM
- TGI [6]: > 100 µM
- TGI [7]: > 100 µM
- TGI [8]: > 100 µM

Compound: NC(=O)N/N=C(/c1nc2ccc([N+](=O)[O-])cc2[nH]c1=O)C(O)c1ccco1 (stereo not given)
- TGI [1]: > 100 µM
- TGI [2]: > 100 µM
- TGI [3]: > 100 µM
- TGI [9]: > 100 µM
- TGI [5]: > 100 µM
- TGI [6]: > 100 µM
- TGI [7]: > 100 µM
- TGI [8]: > 100 µM

Compound: CCOC(=O)/C(C#N)=C/Nc1ccc(-c2nc3ccccc3[nH]2)cc1
- GI50 [1]: 25.4 µM
- TGI [1]: 78 µM
- GI50 [3]: 25.1 µM
- TGI [3]: 98.6 µM
- GI50 [4]: 16.1 µM
- TGI [4]: 44.1 µM
- GI50 [9]: > 100 µM
- TGI [9]: > 100 µM
- GI50 [6]: 24.8 µM
- TGI [6]: > 100 µM
- GI50 [7]: 54.1 µM
- TGI [7]: > 100 µM
- GI50 [8]: 16.8 µM
- TGI [8]: 54.2 µM

Compound: COc1ccc2c(c1)OCCC1=C2SCC2(C)CCN=C12 (stereo not given)
- TGI [2]: > 100 µM
- TGI [3]: > 100 µM
- TGI [4]: > 100 µM
- TGI [9]: > 100 µM
- TGI [5]: > 100 µM
- TGI [6]: > 100 µM
- TGI [7]: > 100 µM
- TGI [8]: > 100 µM

Compound: CC(=O)n1ccc2c(Cl)ncnc21
- TGI [1]: > 100 µM
- TGI [2]: > 100 µM
- TGI [3]: > 100 µM
- TGI [4]: > 100 µM
- TGI [5]: > 100 µM
- TGI [6]: > 100 µM
- TGI [7]: > 100 µM
- TGI [8]: > 100 µM

Compound: C[N+](C)(C)CC1CCCC/C1=N\O (stereo not given)
- TGI [1]: > 100 µM
- TGI [2]: > 100 µM
- TGI [3]: > 100 µM
- TGI [4]: > 100 µM
- TGI [5]: > 100 µM
- TGI [6]: > 100 µM
- TGI [7]: > 100 µM
- TGI [8]: > 100 µM

Compound: CC(C)(C)OC(=O)N1N=NC2C3OC(CC3=O)C21 (stereo not given)
- TGI [1]: > 100 µM
- TGI [2]: > 100 µM
- TGI [3]: > 100 µM
- TGI [9]: 8.96 µM
- TGI [5]: > 100 µM
- TGI [6]: > 100 µM
- TGI [7]: > 100 µM
- TGI [8]: > 100 µM
